Key:
HDAC8 = HDAC8 (Homo sapiens, UniProt Q9BY41); settings: FIG. 2A
Experimental: (§1) The in vitro HDAC enzymatic assays were performed by Reaction Biology (Devault, PA).

HDAC6 = HDAC6 (Homo sapiens, UniProt Q9UBN7); settings: FIG. 2A
Experimental: as §1

class IIa HDACs = experiment: Global quantitative proteomics, change in protein abundance in Kelly cells; assay type: cell-based, human; settings: 1 μM, 5 hours, vs DMSO, moderated t-test, FIG. 4B-4C
Experimental: Cells were washed once with phosphate-buffered saline (PBS), harvested with CellstripperTM (Corning®), washed two additional times with PBS and snap frozen in liquid nitrogen. […] Proteins were precipitated using methanol/chloroform in Donovan et al., Elife 7:e38430 (2018). The precipitated protein was resuspended in 4 M Urea, 50 mM HEPES pH 7.4, followed by dilution to 1 M urea with the addition of 200 mM EPPS, pH 8. Proteins were first digested with LysC (1:50: enzyme:protein) for 12 hours at room temperature. The LysC digestion was diluted to 0.5 M Urea with 200 mM EPPS pH 8 followed by digestion with trypsin (1:50: enzyme:protein) for 6 hours at 37° C. Tandem mass tag (TMT) reagents (Thermo Fisher Scientific) were dissolved in anhydrous acetonitrile (ACN) according to manufacturer's instructions. Anhydrous ACN was added to each peptide sample to a final concentration of 30% v/v, and labeling was induced with the addition of TMT reagent to each sample at a ratio of 1:4 peptide:TMT label. The 11-plex labeling reactions were performed for 1.5 hours at room temperature and the reaction quenched by the addition of hydroxylamine to a final concentration of 0.3% for 15 minutes at room temperature. The sample channels were combined at a 1:1 ratio, desalted using C18 solid phase extraction cartridges (Waters®) and analyzed by LC-MS for channel ratio comparison. Samples were then combined using the adjusted volumes determined in the channel ratio analysis and dried down in a speed vacuum. The combined sample was then resuspended in 1% formic acid, and acidified (pH 2-3) before being subjected to desalting with C18 SPE (Sep-Pak®-, Waters®). […] Proteome Discoverer 2.2 (Thermo Fisher Scientific) was used for .RAW file processing and controlling peptide and protein level false discovery rates, assembling proteins from peptides, and protein quantification from peptides. […] TMT reporter ion intensities were measured using a 0.003 Da window around the theoretical m/z for each reporter ion in the MS3 scan. […]

HDAC4 = HDAC4 (Homo sapiens, UniProt P56524); experiment: as above; assay type: cell-based; set-up: endogenous in cells; host or cells: Kelly cells; settings: 1 μM, 5-hour treatment, vs DMSO, FIG. 3
Sequence of HDAC4 (P56524 whole entry): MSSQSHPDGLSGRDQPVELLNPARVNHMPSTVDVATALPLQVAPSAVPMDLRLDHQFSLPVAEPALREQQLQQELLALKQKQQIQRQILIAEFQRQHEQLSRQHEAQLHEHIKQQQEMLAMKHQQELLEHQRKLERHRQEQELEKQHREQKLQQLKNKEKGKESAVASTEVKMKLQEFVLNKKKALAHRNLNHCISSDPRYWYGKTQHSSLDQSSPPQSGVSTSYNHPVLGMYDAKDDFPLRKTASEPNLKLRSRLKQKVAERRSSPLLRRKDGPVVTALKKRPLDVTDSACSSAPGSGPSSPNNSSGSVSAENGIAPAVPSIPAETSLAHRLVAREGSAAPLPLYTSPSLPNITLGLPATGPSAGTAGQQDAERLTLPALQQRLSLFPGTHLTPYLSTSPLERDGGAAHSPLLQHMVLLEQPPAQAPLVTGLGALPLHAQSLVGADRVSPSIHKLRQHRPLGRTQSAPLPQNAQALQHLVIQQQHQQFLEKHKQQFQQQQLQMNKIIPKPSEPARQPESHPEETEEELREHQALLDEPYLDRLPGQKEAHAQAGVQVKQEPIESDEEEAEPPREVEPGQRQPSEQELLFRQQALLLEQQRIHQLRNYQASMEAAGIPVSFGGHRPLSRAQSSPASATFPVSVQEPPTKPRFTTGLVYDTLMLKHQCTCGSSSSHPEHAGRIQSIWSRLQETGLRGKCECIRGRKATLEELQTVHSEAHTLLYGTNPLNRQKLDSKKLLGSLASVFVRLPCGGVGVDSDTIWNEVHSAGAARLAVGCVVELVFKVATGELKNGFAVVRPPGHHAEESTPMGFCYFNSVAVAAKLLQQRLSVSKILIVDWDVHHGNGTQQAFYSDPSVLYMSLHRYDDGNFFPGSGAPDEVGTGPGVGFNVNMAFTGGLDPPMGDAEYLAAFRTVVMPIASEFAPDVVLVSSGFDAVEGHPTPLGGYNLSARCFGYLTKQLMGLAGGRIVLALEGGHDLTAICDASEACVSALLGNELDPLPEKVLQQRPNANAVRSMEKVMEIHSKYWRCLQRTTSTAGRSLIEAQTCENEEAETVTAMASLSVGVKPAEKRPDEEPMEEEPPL
Experimental: (§2) Cells were washed once with phosphate-buffered saline (PBS), harvested with CellstripperTM (Corning®), washed two additional times with PBS and snap frozen in liquid nitrogen. […] Proteins were precipitated using methanol/chloroform in Donovan et al., Elife 7:e38430 (2018). The precipitated protein was resuspended in 4 M Urea, 50 mM HEPES pH 7.4, followed by dilution to 1 M urea with the addition of 200 mM EPPS, pH 8. Proteins were first digested with LysC (1:50: enzyme:protein) for 12 hours at room temperature. The LysC digestion was diluted to 0.5 M Urea with 200 mM EPPS pH 8 followed by digestion with trypsin (1:50: enzyme:protein) for 6 hours at 37° C. Tandem mass tag (TMT) reagents (Thermo Fisher Scientific) were dissolved in anhydrous acetonitrile (ACN) according to manufacturer's instructions. Anhydrous ACN was added to each peptide sample to a final concentration of 30% v/v, and labeling was induced with the addition of TMT reagent to each sample at a ratio of 1:4 peptide:TMT label. The 11-plex labeling reactions were performed for 1.5 hours at room temperature and the reaction quenched by the addition of hydroxylamine to a final concentration of 0.3% for 15 minutes at room temperature. The sample channels were combined at a 1:1 ratio, desalted using C18 solid phase extraction cartridges (Waters®) and analyzed by LC-MS for channel ratio comparison. Samples were then combined using the adjusted volumes determined in the channel ratio analysis and dried down in a speed vacuum. The combined sample was then resuspended in 1% formic acid, and acidified (pH 2-3) before being subjected to desalting with C18 SPE (Sep-Pak®-, Waters®). […] The 96 resulting fractions were then pooled in a non-contiguous manner into 24 fractions and these fractions were used for subsequent mass spectrometry analysis. Data were collected using an Orbitrap FusionTM LumosTM mass spectrometer (Thermo Fisher Scientific, San Jose, CA, USA) coupled with a […] pump (Thermo Fisher Scientific). Peptides were separated on an EasySprayTM ES803.rev2 75 μm inner diameter microcapillary column (ThermoFisher Scientific). Peptides were separated using a 190 min gradient of 6-27% acetonitrile in 1.0% formic acid with a flow rate of 300 nL/min. Each analysis used an MS3-based TMT method as described in McAlister et al., Anal. Chem. 86(14):7150-7158 (2014). The data were acquired using a mass range of m/z 340-1350, resolution 120,000, automatic gain control (AGC) target 1×10^6, maximum injection time 100 ms, dynamic exclusion of 120 seconds for the peptide measurements in the Orbitrap FusionTM LumosTM mass spectrometer. Data dependent MS2 spectra were acquired in the ion trap with a normalized collision energy (NCE) set at 55%, AGC target set to 1.5×10^5 and a maximum injection time of 150 ms. MS3 scans were acquired in the Orbitrap FusionTM LumosTM mass spectrometer with a higher energy collision dissociation (HCD) set to 55%, AGC target set to 1.5×10^5, maximum injection time of 150 ms, resolution at 50,000 and with a maximum synchronous precursor selection (SPS) precursors set to 10. Proteome Discoverer 2.2 (Thermo Fisher Scientific) was used for .RAW file processing and controlling peptide and protein level false discovery rates, assembling proteins from peptides, and protein quantification from peptides. MS/MS spectra were searched against a Swissprot human database (December 2016) with both the forward and reverse sequences. […] TMT reporter ion intensities were measured using a 0.003 Da window around the theoretical m/z for each reporter ion in the MS3 scan. […] Reporter ion intensities were normalized and scaled using in-house scripts in the R framework. Statistical analysis was carried out using the limma package within the R framework as described in Ritchie et al., Nucleic Acids Res. 43(7):e47 (2015).

HDAC5 = HDAC5 (Homo sapiens, UniProt Q9UQL6); experiment: as above; assay type: cell-based; set-up: endogenous in cells; host or cells: Kelly cells; settings: 1 μM, 5-hour treatment, vs DMSO, FIG. 3
Sequence of HDAC5 (Q9UQL6 whole entry): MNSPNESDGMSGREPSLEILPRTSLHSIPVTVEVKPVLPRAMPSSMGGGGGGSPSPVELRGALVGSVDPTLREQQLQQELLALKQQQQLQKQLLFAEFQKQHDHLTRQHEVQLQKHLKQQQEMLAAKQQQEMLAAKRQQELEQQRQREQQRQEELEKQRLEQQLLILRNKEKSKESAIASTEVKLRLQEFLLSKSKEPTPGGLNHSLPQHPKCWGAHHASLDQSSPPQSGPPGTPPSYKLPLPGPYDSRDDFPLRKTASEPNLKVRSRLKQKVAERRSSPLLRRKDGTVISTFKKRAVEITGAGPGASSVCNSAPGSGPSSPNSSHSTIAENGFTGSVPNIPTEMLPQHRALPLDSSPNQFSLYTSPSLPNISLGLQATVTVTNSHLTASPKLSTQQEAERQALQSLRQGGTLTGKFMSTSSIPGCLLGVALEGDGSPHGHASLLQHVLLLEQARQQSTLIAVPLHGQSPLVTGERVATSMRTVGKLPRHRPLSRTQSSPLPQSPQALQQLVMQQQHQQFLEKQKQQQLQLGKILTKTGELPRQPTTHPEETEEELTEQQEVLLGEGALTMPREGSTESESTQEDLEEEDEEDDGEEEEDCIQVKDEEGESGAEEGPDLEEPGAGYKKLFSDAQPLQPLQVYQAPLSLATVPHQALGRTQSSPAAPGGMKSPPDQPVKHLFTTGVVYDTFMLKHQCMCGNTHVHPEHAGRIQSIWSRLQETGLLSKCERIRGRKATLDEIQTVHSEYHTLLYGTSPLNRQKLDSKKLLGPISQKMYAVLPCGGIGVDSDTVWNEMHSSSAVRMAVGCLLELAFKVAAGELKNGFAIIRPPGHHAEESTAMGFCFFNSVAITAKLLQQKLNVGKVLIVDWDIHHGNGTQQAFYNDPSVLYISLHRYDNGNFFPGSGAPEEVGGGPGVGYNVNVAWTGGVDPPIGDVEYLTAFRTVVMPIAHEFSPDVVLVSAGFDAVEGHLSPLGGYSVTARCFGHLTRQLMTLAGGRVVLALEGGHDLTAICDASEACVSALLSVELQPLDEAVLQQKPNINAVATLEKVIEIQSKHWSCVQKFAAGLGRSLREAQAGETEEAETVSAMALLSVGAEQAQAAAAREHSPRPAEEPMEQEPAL
Experimental: as §2

Sequence of HDAC8 (Q9BY41 whole entry): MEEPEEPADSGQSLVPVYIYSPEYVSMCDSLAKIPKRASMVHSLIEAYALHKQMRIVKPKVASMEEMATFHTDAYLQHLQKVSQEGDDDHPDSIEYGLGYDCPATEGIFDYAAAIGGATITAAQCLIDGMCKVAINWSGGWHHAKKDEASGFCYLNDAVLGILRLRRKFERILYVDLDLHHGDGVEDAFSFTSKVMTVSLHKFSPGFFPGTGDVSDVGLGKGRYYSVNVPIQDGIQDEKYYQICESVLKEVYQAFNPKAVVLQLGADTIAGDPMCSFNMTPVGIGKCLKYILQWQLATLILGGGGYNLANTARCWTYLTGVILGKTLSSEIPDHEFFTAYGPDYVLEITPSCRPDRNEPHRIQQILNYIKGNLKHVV
Sequence of HDAC6 (Q9UBN7 whole entry): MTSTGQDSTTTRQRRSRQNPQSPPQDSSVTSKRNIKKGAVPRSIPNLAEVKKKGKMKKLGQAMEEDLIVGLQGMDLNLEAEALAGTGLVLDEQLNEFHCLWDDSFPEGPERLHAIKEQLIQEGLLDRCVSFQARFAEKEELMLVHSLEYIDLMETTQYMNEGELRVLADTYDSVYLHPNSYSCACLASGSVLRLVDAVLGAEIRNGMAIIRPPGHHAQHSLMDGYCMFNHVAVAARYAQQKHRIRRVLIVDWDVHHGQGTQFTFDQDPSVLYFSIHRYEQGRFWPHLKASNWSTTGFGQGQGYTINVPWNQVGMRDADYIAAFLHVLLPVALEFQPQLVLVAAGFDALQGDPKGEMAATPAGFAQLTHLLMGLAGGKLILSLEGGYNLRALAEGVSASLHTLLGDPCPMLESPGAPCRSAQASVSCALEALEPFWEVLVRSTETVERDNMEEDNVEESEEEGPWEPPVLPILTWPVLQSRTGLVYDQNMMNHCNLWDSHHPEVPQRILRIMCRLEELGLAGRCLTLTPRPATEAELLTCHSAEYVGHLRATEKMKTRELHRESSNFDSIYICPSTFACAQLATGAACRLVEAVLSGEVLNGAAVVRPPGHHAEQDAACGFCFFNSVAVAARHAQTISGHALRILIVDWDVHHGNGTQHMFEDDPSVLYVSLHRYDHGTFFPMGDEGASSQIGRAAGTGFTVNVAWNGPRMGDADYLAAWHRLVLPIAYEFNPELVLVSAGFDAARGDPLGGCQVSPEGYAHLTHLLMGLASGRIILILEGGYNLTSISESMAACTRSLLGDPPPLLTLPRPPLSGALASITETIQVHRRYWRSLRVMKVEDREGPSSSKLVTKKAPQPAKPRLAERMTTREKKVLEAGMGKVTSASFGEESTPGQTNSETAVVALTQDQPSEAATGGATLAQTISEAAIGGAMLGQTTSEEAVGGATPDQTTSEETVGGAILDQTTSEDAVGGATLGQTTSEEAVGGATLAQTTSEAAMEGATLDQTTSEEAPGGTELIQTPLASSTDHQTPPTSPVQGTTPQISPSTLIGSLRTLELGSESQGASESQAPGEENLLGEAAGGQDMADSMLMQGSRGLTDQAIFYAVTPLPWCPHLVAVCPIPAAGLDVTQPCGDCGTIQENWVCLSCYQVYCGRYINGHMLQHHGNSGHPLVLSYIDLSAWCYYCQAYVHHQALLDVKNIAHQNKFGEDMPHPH

protein expression level of HDAC4 (HDAC4) | protein expression level of HDAC5 (HDAC5) | Structure (SMILES) | inhibition of HDAC8 (HDAC8) | inhibition of HDAC6 (HDAC6) | class IIa HDAC levels (relative protein abundance) (class IIa HDACs)
– | – | O=C1CCC(N2C(=O)c3cccc(NCCCCCCN4CCC(CNC(=O)c5cccc(-c6noc(C(F)(F)F)n6)c5)(c5nc(-c6ccccc6)cs5)CC4)c3C2=O)C(=O)N1 (centres unmarked) [Compound 1] | did not inhibit | did not inhibit | –
reduction in protein expression level | reduction in protein expression level | CCN(CCNc1cccc2c1C(=O)N(C1CCC(=O)NC1=O)C2=O)C[C@@H](C)NC(=O)c1ccc(-c2noc(C(F)(F)F)n2)cc1 (stereo partly drawn) [Compound 16, N-((2R)-1-((2-((2-(2,6-dioxopiperidin-3-yl)-1,3-dioxoisoindolin-4-yl)amino)ethyl)(ethyl)amino)propan-2-yl)-4-(5-(trifluoromethyl)-1,2,4-oxadiazol-3-yl)benzamide] | – | – | significant reduction

Source: patent US20240246956A1, “CLASS IIA HISTONE DEACETYLASE (HDAC) DEGRADER LIGANDS AND METHODS OF USE THEREOF” (DANA-FARBER CANCER INSTITUTE, INC., priority 2021, published 2024)
